The source of these data is US20250122189A1, “FGFR4 INHIBITOR ACID SALT, PREPARATION METHOD THEREFOR AND USE THEREOF” (Abbisko Therapeutics Co., Ltd., priority 2021, published 2025).

Where a name gives a salt, the structure may show the parent alone.

The nature of series [1]: Hygroscopic behavior test (dynamic vapor sorption). The class given is physicochemical. As to conditions: DVS, 25° C., relative humidity 0% to 90%. The text has this: The experimental method of characterizing the crystalline acidic salts of the compound of formula (I) using dynamic vapor sorption (DVS) is as follows: a small amount of crystalline acidic salt powder of the compound of formula (I) was placed in a precision sample pan that came with the instrument; after the sample was loaded, the aluminum pan was sent into the instrument for analysis. In the present patent, the instruments used for dynamic vapor sorption were all the DVS Intrinsic model, and the experimental parameters were set as follows: nitrogen was set as carrier gas, the constant temperature was set to 25° C., the rate of mass percentage change over a unit of time (dm/dt)=0.01%/min was used as a criterion for determining if an equilibrium is reached, and the program humidity change cycle was set as follows: the initial relative humidity was 0%, the relative humidity was 90% at the end of the cycle, 2 cycles were set, and each 10% R.H. change was a step.
The hygroscopic weight gains of the p-toluenesulfonate salt of the compound of formula (I) (Form A) in various relative humidity conditions (hygroscopic weight gain/pre-hygroscopic weight*100%) were measured according to the dynamic vapor sorption method to assess the hygroscopicity of the p-toluenesulfonate salt of the compound of formula (I) (Form A).

Another series is described as follows: Solubility in water. The class given is physicochemical. The following applies: stirred 24 hrs at room temperature. Here is the method: 2 mg of the p-toluenesulfonate salt of the compound of formula (I) (Form A) and 2 mg of the compound of formula (I) in free form were separately placed in a 2 mL glass bottle, 0.4 mL of water was added into the glass bottles separately, the two mixtures were each stirred for 24 hrs on a magnetic stirrer at room temperature and then centrifuged, and the content measurement was carried out by using a liquid phase.

The nature of series [2]: In vivo pharmacokinetic experiment in monkeys. As to conditions: Monkey, 200 mpk (based on the compound in free form); 200 mg/kg. The source says: The p-toluenesulfonate salt of the compound of formula (I) (Form A) and the compound of formula (I) in free form were each subjected to PK experiments in monkeys, and the administration dose was 200 mpk (based on the compound in free form).

Series [3] can be described thus: Solubility in physiological vehicle (25% PEG300/5% Solutol HS15/70% water). As to conditions: vehicle 25% PEG300/5% Solutol HS15/70% water (v/v/v), room temperature, various time points (FIG. 7). The class given is physicochemical. Here is the method:
80 mg of the p-toluenesulfonate salt of the compound of formula (I) (Form A) and 80 mg of the compound of formula (I) in free form were separately placed in a 4 mL glass bottle, 2 mL of vehicle (25% PEG300/5% Solutol HS15/70% water) (v/v/v) was added into the glass bottles separately, the two mixtures were each stirred on a magnetic stirrer at room temperature, samples were taken at various time points and centrifuged, and the content measurement was carried out by using a liquid phase.

The nature of series [4]: Stability test under high temperature and accelerated conditions (chemical purity). It counts as physicochemical. The text has this:
The p-toluenesulfonate salt of the compound of formula (I) (Form A) and the compound of formula (I) in free form were subjected to conditions of high temperature and accelerated experiments for stability test, and the chemical purity was used as an evaluation index to evaluate the stability of the p-toluenesulfonate salt of the compound of formula (I) (Form A) and the compound of formula (I) in free form.

In the case of `C=CC(=O)N[C@H]1CCOC[C@H]1Nc1ncc2cc(-c3c(F)c(OC)cc(OC)c3F)nc(N3CC(C)(OC)C3)c2n1` [p-toluenesulfonate salt of the compound of formula (I) (Form], in series [1], the “weight change along with the increase of relative humidity (hygroscopic weight gain)” value is “no more than 2%”. This molecule also showed a Solubility in “Solubility in water” of 1370 µg/mL. The AUC in series [2] stood at 124860 ng·h/mL. Also, the “solubility compared with the compound of formula (I) in free form” value in series [3] is recorded as “significantly higher”. The “Chemical stability (% initial)” value in series [4] (40° C./75% RH, 3 d) was determined as 100.2 % initial; in series [4] (40° C./75% RH, 7 d), 100.1 % initial; in series [4] (40° C./75% RH, 14 d), 100.0 % initial; in series [4] (60° C., 3 d), 100.3 % initial; in series [4] (60° C., 7 d) it was 99.8 % initial; in series [4] (60° C., 14 d), 99.8 % initial.
Regarding `C=CC(=O)N[C@H]1CCOC[C@H]1Nc1ncc2cc(-c3c(F)c(OC)cc(OC)c3F)nc(N3CC(C)(OC)C3)c2n1` [Compound of formula (I) in free form, N-((3S,4S)-3-((6-(2,6-difluoro-3,5-dimethoxyphenyl)-8-(3-methoxy-3-methylazetidin-1-yl)pyrido[3,4-d]pyrimidin-2-yl)amino)tetrahydro-2H-pyran-4-yl)acrylamide], the Solubility in “Solubility in water” is 25.6 µg/mL. The same molecule gave an AUC in series [2] of 9952 ng·h/mL. For the same molecule, the “Chemical stability (% initial)” value in series [4] (40° C./75% RH, 3 d) is recorded as 99.9 % initial; in series [4] (40° C./75% RH, 7 d), 100.0 % initial; in series [4] (40° C./75% RH, 14 d) it was 100.0 % initial; in series [4] (60° C., 3 d), 100.1 % initial; in series [4] (60° C., 7 d), 100.1 % initial; in series [4] (60° C., 14 d) it was 100.1 % initial.
